Measurements from patent US9409952B2, “Peptide-compound cyclization method” (Chugai Seiyaku Kabushiki Kaisha, priority 2011, dated 2016).
Read-outs that look alike come from different tables or passages of the source. Starred links: 1 amine or outer side, 2 acyl side, 3 side chain; linkers in the order of their positions; H or OH if unused. Positions of bridges follow the written chain, without caps; N, C: chain ends. Non-standard residues stand in square brackets, D forms with d. Residues, ends and D or L forms follow the SMILES beside them. *: point of attachment. NMeF = CN[C@@H](Cc1ccccc1)C(=O)O; NMeGABA = CN(CCCC(=O)[*:2])[*:1]; NMeI = CC[C@H](C)[C@H](NC)C(=O)O; NMeβAla = CN(CCC(=O)[*:2])[*:1]; NMeL = CN[C@@H](CC(C)C)C(=O)O; NMeV = CN[C@H](C(=O)O)C(C)C; NMeA = CN[C@@H](C)C(=O)O; Piperidide = C1CCN(*)CC1; dNMeA = CN[C@H](C)C(=O)O; Sar = CNCC(=O)O; tBu = CC(C)(C)*

Experiments:
[1] = PAMPA (parallel artificial membrane permeability assay); type: in vitro ADME; conditions: PAMPA
Outline: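 Artificial membrane was 10% (w/v) egg lecithin plus 0.5% (w/v) cholesterol in dodecane on a PVDF filter. A 10 mM DMSO stock was added at 0.5% (v/v) to donor buffer (50 mM MOPSO, pH 6.5, 5.0% glycocholic acid). After 18 h at 37 °C, LC/MS or LC/UV gave donor and acceptor levels for Pe.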

[2] = Metabolic stability in human hepatic microsome; type: in vitro ADME; conditions: microsomes
[3] = membrane permeation rate (Pe), 50 mM MOPSO buffer pH 6.5 with 5.0% glycocholic acid, 37° C., 18 hours, read-out: iPAMPA Pe
[4] = pH 7.4, human hepatic microsome, NADPH(+), read-out: CL NADPH(+)

SMILES	Papp at 18 hours, 50 µM ([1]; pH 6.5)	microsomal CLint at 1 uM ([2]; human, pH 7.4, CL NADPH(+))	Papp at 18 hours, 50 µM [1, 3]	microsomal CLint at 1 uM [2, 4]
CC[C@H](C)[C@H]1C(=O)N[C@@H]([C@@H](C)O)C(=O)N(C)CC(=O)N(C)[C@@H](CC(C)C)C(=O)N[C@H](C(=O)N2CCCCC2)CC(=O)N(C)[C@H](C)C(=O)N[C@@H](CC(C)C)C(=O)N(C)[C@@H](CC(C)C)C(=O)N(C)[C@@H](Cc2ccccc2)C(=O)N[C@@H](C)C(=O)N(C)[C@@H](Cc2ccccc2)C(=O)N1C [DP-105] ([dNMeA]L[NMeL][NMeF]A[NMeF][NMeI]T[Sar][NMeL]D-Piperidide; lactam N-11)	45 ×10⁻⁶ cm/s	60 µL/min/mg	–	–
CC[C@H](C)[C@H]1C(=O)N(C)[C@@H](CC(C)C)C(=O)N[C@@H]([C@@H](C)O)C(=O)N2CCC[C@H]2C(=O)N[C@@H](Cc2ccccc2)C(=O)N[C@H](C(=O)N2CCCCC2)CC(=O)N(C)CC(=O)N(C)[C@@H](CC(C)C)C(=O)N[C@@H](Cc2ccccc2)C(=O)N[C@@H](CC(C)C)C(=O)NCC(=O)N1C [DP-106] ([Sar][NMeL]FLG[NMeI][NMeL]TPFD-Piperidide; lactam N-11)	34 ×10⁻⁶ cm/s	155 µL/min/mg	–	–
CC[C@H](C)[C@@H]1NC(=O)[C@H](C)N(C)C(=O)[C@H](CC(C)C)NC(=O)[C@H]([C@@H](C)O)NC(=O)CNC(=O)[C@@H]2CCCN2C(=O)[C@H](COC(C)(C)C)NC(=O)[C@H](CC(C)C)N(C)C(=O)[C@H](Cc2ccccc2)NC(=O)CCCN(C)C(=O)C[C@@H](C(=O)N2CCCCC2)NC(=O)[C@H](Cc2ccccc2)N(C)C1=O [DP-107] ([NMeGABA]F[NMeL]S(tBu)PGTL[NMeA]I[NMeF]D-Piperidide; lactam N-12)	–	–	23 ×10⁻⁶ cm/s	14 µL/min/mg
CC[C@H](C)[C@@H]1NC(=O)[C@H](C)N(C)C(=O)[C@H]([C@@H](C)O)NC(=O)[C@H](Cc2ccccc2)N(C)C(=O)CNC(=O)[C@H](CC(C)C)N(C)C(=O)[C@H](C(C)C)NC(=O)[C@H](CC(C)C)N(C)C(=O)[C@H](Cc2ccccc2)NC(=O)[C@H](C)N(C)C(=O)CCCN(C)C(=O)C[C@@H](C(=O)N2CCCCC2)NC1=O [DP-108] ([NMeGABA][NMeA]F[NMeL]V[NMeL]G[NMeF]T[NMeA]ID-Piperidide; lactam N-12)	–	–	22 ×10⁻⁶ cm/s	48 µL/min/mg
CC[C@H](C)[C@@H]1NC(=O)[C@H](Cc2ccccc2)N(C)C(=O)[C@@H]2CCCN2C(=O)[C@H]([C@@H](C)O)NC(=O)[C@H](CC(C)C)NC(=O)[C@H](C)N(C)C(=O)CCCN(C)C(=O)C[C@@H](C(=O)N2CCCCC2)NC(=O)[C@H](CC(C)C)NC(=O)[C@H](CC(C)C)N(C)C(=O)CNC(=O)[C@H](Cc2ccccc2)N(C)C1=O [DP-109] ([NMeGABA][NMeA]LTP[NMeF]I[NMeF]G[NMeL]LD-Piperidide; lactam N-12)	–	–	30 ×10⁻⁶ cm/s	36 µL/min/mg
CC[C@H](C)[C@@H]1NC(=O)[C@H](Cc2ccccc2)N(C)C(=O)[C@@H](C)NC(=O)C[C@@H](C(=O)N2CCCCC2)NC(=O)[C@H](C(C)C)N(C)C(=O)[C@H](Cc2ccccc2)N(C)C(=O)[C@H](COC(C)(C)C)NC(=O)[C@H](CC(C)C)N(C)C(=O)CN(C)C(=O)[C@H]([C@@H](C)O)NC(=O)[C@H](CC(C)C)N(C)C1=O [DP-110] ([dA][NMeF]I[NMeL]T[Sar][NMeL]S(tBu)[NMeF][NMeV]D-Piperidide; lactam N-11)	–	–	30 ×10⁻⁶ cm/s	36 µL/min/mg
CC(C)C[C@@H]1NC(=O)[C@H](CC(C)C)NC(=O)[C@H](C)N(C)C(=O)C[C@@H](C(=O)N2CCCCC2)NC(=O)[C@H](C(C)C)N(C)C(=O)[C@H](CC(C)C)NC(=O)[C@H](Cc2ccccc2)NC(=O)[C@H]([C@@H](C)O)NC(=O)CN(C)C(=O)[C@H](CC(C)C)NC(=O)[C@H](C)NC1=O [DP-111] ([NMeA]LLAL[Sar]TFL[NMeV]D-Piperidide; lactam N-11)	12 ×10⁻⁶ cm/s	17 µL/min/mg	–	–
CC[C@H](C)[C@@H]1NC(=O)[C@H](CC(C)C)N(C)C(=O)[C@H](C(C)C)N(C)C(=O)[C@H](C)NC(=O)[C@H](C)N(C)C(=O)[C@H](Cc2ccccc2)NC(=O)[C@H]([C@@H](C)O)NC(=O)[C@H](CC(C)C)N(C)C(=O)[C@H](CC(C)C)N(C)C(=O)[C@H](C)N(C)C(=O)C[C@@H](C(=O)N2CCCCC2)NC1=O [DP-112] ([NMeA][NMeL][NMeL]TF[NMeA]A[NMeV][NMeL]ID-Piperidide; lactam N-11)	35 ×10⁻⁶ cm/s	49 µL/min/mg	–	–
CC[C@H](C)[C@@H]1NC(=O)[C@@H]2CCCN2C(=O)[C@H]([C@@H](C)O)NC(=O)[C@H](Cc2ccccc2)NC(=O)CNC(=O)[C@H](Cc2ccccc2)N(C)C(=O)[C@H](CC(C)C)NC(=O)[C@H](CC(C)C)N(C)C(=O)[C@H](CC(C)C)N(C)C(=O)CCCN(C)C(=O)C[C@@H](C(=O)N2CCCCC2)NC1=O [DP-113] ([NMeGABA][NMeL][NMeL]L[NMeF]GFTPID-Piperidide; lactam N-11)	28 ×10⁻⁶ cm/s	84 µL/min/mg	–	–
CC[C@H](C)[C@@H]1NC(=O)[C@H](CC(C)C)N(C)C(=O)CCCN(C)C(=O)C[C@@H](C(=O)N2CCCCC2)NC(=O)[C@H](CC(C)C)N(C)C(=O)[C@H](C)N(C)C(=O)[C@H]([C@@H](C)O)NC(=O)[C@H](CC(C)C)N(C)C(=O)[C@H](COC(C)(C)C)NC(=O)[C@H](Cc2ccccc2)N(C)C(=O)[C@H](Cc2ccccc2)N(C)C1=O [DP-114] ([NMeGABA][NMeL]I[NMeF][NMeF]S(tBu)[NMeL]T[NMeA][NMeL]D-Piperidide; lactam N-11)	44 ×10⁻⁶ cm/s	56 µL/min/mg	–	–
CC[C@H](C)[C@@H]1NC(=O)[C@H](Cc2ccccc2)N(C)C(=O)[C@H](CC(C)C)NC(=O)[C@H](CC(C)C)NC(=O)[C@H](Cc2ccccc2)NC(=O)[C@H](CC(C)C)NC(=O)[C@@H](C)NC(=O)C[C@@H](C(=O)N2CCCCC2)NC(=O)[C@H](Cc2ccccc2)NC(=O)[C@H]([C@@H](C)O)NC1=O [DP-115] ([dA]LFLL[NMeF]ITFD-Piperidide; lactam N-10)	–	–	0.45 ×10⁻⁶ cm/s	28 µL/min/mg
CC(C)C[C@@H]1NC(=O)[C@H]([C@@H](C)O)NC(=O)[C@H](CC(C)C)NC(=O)[C@H](CC(C)C)N(C)C(=O)[C@H](Cc2ccccc2)NC(=O)[C@H](Cc2ccccc2)NC(=O)[C@H](C)N(C)C(=O)C[C@@H](C(=O)N2CCCCC2)NC(=O)[C@H](Cc2ccccc2)N(C)C(=O)CNC1=O [DP-116] ([NMeA]FF[NMeL]LTLG[NMeF]D-Piperidide; lactam N-10)	–	–	23 ×10⁻⁶ cm/s	333 µL/min/mg
CC(C)C[C@@H]1NC(=O)CCN(C)C(=O)C[C@@H](C(=O)N2CCCCC2)NC(=O)[C@H](Cc2ccccc2)N(C)C(=O)CNC(=O)[C@H]([C@@H](C)O)NC(=O)[C@H](Cc2ccccc2)NC(=O)[C@H](CC(C)C)N(C)C(=O)[C@H](CC(C)C)NC(=O)[C@H](Cc2ccccc2)NC1=O [DP-117] ([NMeβAla]LFL[NMeL]FTG[NMeF]D-Piperidide; lactam N-10)	–	–	25 ×10⁻⁶ cm/s	194 µL/min/mg
CC[C@H](C)[C@@H]1NC(=O)[C@H](CC(C)C)N(C)C(=O)CCN(C)C(=O)C[C@@H](C(=O)N2CCCCC2)NC(=O)[C@H](Cc2ccccc2)N(C)C(=O)[C@H](CC(C)C)NC(=O)CN(C)C(=O)[C@H]([C@@H](C)O)NC(=O)[C@H](C)N(C)C(=O)[C@H](C(C)C)N(C)C1=O [DP-118] ([NMeβAla][NMeL]I[NMeV][NMeA]T[Sar]L[NMeF]D-Piperidide; lactam N-10)	14 ×10⁻⁶ cm/s	79 µL/min/mg	–	–
CC[C@H](C)[C@@H]1NC(=O)[C@H](Cc2ccccc2)NC(=O)[C@@H](C)N(C)C(=O)C[C@@H](C(=O)N2CCCCC2)NC(=O)[C@H](CC(C)C)NC(=O)[C@H](Cc2ccccc2)N(C)C(=O)[C@H](Cc2ccccc2)NC(=O)[C@H](CC(C)C)NC(=O)[C@H]([C@@H](C)O)NC(=O)[C@H](CC(C)C)NC1=O [DP-119] ([dNMeA]FILTLF[NMeF]LD-Piperidide; lactam N-10)	–	–	16 ×10⁻⁶ cm/s	67 µL/min/mg
CC(C)C[C@@H]1NC(=O)[C@H](CC(C)C)N(C)C(=O)[C@H](Cc2ccccc2)N(C)C(=O)CNC(=O)[C@H]([C@@H](C)O)NC(=O)[C@H](CC(C)C)N(C)C(=O)[C@H](Cc2ccccc2)NC(=O)[C@@H](C)N(C)C(=O)C[C@@H](C(=O)N2CCCCC2)NC(=O)[C@H](COC(C)(C)C)NC1=O [DP-120] ([dNMeA]F[NMeL]TG[NMeF][NMeL]LS(tBu)D-Piperidide; lactam N-10)	–	–	50 ×10⁻⁶ cm/s	84 µL/min/mg
CC[C@H](C)[C@@H]1NC(=O)[C@H](CC(C)C)N(C)C(=O)[C@H](C)NC(=O)CCCN(C)C(=O)C[C@@H](C(=O)N2CCCCC2)NC(=O)[C@H]([C@@H](C)O)NC(=O)[C@H](Cc2ccccc2)NC(=O)[C@H](C(C)C)N(C)C(=O)[C@H](CC(C)C)N(C)C(=O)[C@H](Cc2ccccc2)N(C)C1=O [DP-121] ([NMeGABA]A[NMeL]I[NMeF][NMeL][NMeV]FTD-Piperidide; lactam N-10)	41 ×10⁻⁶ cm/s	46 µL/min/mg	–	–
CC(C)C[C@H]1C(=O)N(C)[C@@H](Cc2ccccc2)C(=O)N[C@@H]([C@@H](C)O)C(=O)N(C)[C@@H](C)C(=O)N(C)[C@@H](CC(C)C)C(=O)N(C)[C@@H](CC(C)C)C(=O)N[C@H](C(=O)N2CCCCC2)CC(=O)N(C)CCCC(=O)N[C@@H](COC(C)(C)C)C(=O)N(C)CC(=O)N1C [DP-122] ([NMeGABA]S(tBu)[Sar][NMeL][NMeF]T[NMeA][NMeL][NMeL]D-Piperidide; lactam N-10)	32 ×10⁻⁶ cm/s	169 µL/min/mg	–	–
CC(C)C[C@H]1C(=O)N(C)[C@@H](CC(C)C)C(=O)N[C@H](C(=O)N(C)[C@@H](Cc2ccccc2)C(=O)N[C@@H](C)C(=O)N2CCCCC2)CC(=O)N[C@H](C(C)C)C(=O)N(C)[C@@H](C)C(=O)N(C)[C@@H](Cc2ccccc2)C(=O)N(C)[C@@H](CC(C)C)C(=O)N[C@@H]([C@@H](C)O)C(=O)N(C)CC(=O)N[C@@H](C(C)C)C(=O)N1C [DP-123] ([dV][NMeA][NMeF][NMeL]T[Sar]V[NMeL][NMeL]D[NMeF]A-Piperidide; lactam N-10)	–	–	58 ×10⁻⁶ cm/s	21 µL/min/mg
